Eight compounds from patent US8586611B2 (priority 2005, dated 2013) can be followed below.

Type in all cases: in vivo
One experiment relates to Plasmopara viticola. The experiment in a line: Test B: grape downy mildew, spray 24 h after inoculation (disease rating, 100 = 100% disease control). The method in brief: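 Grape seedlings were inoculated with Plasmopara viticola and held 24 h saturated at 20 °C, then sprayed to run-off with compound suspension (acetone/water with 250 ppm Trem 014; 200 ppm ≈ 500 g/ha). After 5 days at 20 °C and 24 h saturation, disease was rated from 0 to 100% control versus untreated.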

Experiment [1] concerns Erysiphe graminis f. sp. tritici. The experiment in a line: Test E: wheat powdery mildew, spray the day before inoculation (disease rating, 100 = 100% disease control). The procedure, abridged: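 Wheat seedlings sprayed to run-off with compound suspended in acetone/water 50/50 with 250 ppm Trem 014 (200 ppm equivalent to 500 g/ha); inoculated next day with Erysiphe graminis f. sp. tritici spore dust. Kept 7 days at 20° C, then rated 0–100% disease control versus controls.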

The test system of experiment [2] is Phytophthora infestans. The experiment can be described thus: whole plant or invertebrate. Conditions: tomato late blight.
Experiment [3] deals with Pseudoperonospora cubensis. The experiment can be described thus: Test F: cucumber downy mildew, DMSO/acetone/water test suspension, spray the day before inoculation (disease rating, 100 = 100% disease control). An excerpt: The test compounds were first dissolved in dimethyl sulfoxide (DMSO) in an amount equal to 4% of the final volume and then suspended at the desired concentration (in ppm) in acetone and purified water (30/70 mix by volume). The resulting test suspensions were then used in test F. Spraying a 250 ppm test suspension on the test plants was the equivalent of a rate of 250 g/ha.
The test suspension was sprayed on cucumber seedlings. The following day the seedlings were inoculated with a spore suspension of Pseudoperonospora cubensis (the causal agent of cucumber downy mildew) and incubated in a saturated atmosphere at 20° C. for 24 h, and then moved to a growth chamber at 20° C. for 6 days, after which disease ratings were made.
Results for Tests A-F are given in Table A. In the table, a rating of 100 indicates 100% disease control and a rating of 0 indicates no disease control (relative to the controls). A dash (-) indicates no test results.

Experiment [4] relates to Phytophthora infestans. The experiment in a line: whole plant or invertebrate. Conditions: tomato late blight. This is another data set of the same source.
The mark [5] stands for this setting: spray 24 h after inoculation, compounds without asterisk (not 40 or 10 ppm).
The mark [6] stands for this setting: spray the day before inoculation, compounds without asterisk (not 40 or 10 ppm).
Where [7] appears, read: spray 17 h after inoculation, compounds without asterisk (not 40 or 10 ppm).
Where [8] appears, read: DMSO/acetone/water suspension, spray the day before inoculation, compounds without asterisk.
[9] abbreviates: sprayed 24 h after inoculation, unmarked compounds (no asterisk, not 40 or 10 ppm).
Setting [10] is: sprayed the day before inoculation, 7 days at 20° C., unmarked compounds (no asterisk, not 40 or 10 ppm).
The mark [11] stands for this setting: sprayed 17 h after inoculation, unmarked compounds (no asterisk, not 40 or 10 ppm).
Where [12] appears, read: DMSO/acetone/water test suspension, sprayed the day before inoculation, unmarked compounds (no asterisk).
Setting [13] is: sprayed the day before inoculation, unmarked compounds (no asterisk, not 40 or 10 ppm).

Structures are written as SMILES.

Regarding `Cc1ccc(C)c(CC(=O)N2CCC(c3nc(C(=O)N(C)C(C)c4cccs4)cs3)CC2)c1` (stereo not shown) [compound 89], the “Test B disease rating (100 = 100% disease control, 0 = no disease control)” value in the experiment on Plasmopara viticola (setting [5]) turned out to be 100%. Besides, the “Test E disease rating (100 = 100% disease control, 0 = no disease control)” value in experiment [1] (setting [6]) worked out at 43%. Moreover, the “Test D disease rating (100 = 100% disease control, 0 = no disease control)” value in the experiment with Phytophthora infestans [2] (setting [7]) was determined as 99%. Also, the “Test F disease rating (100 = 100% disease control, 0 = no disease control)” value in experiment [3] (setting [8]) was 93%. Also, the “Test C disease rating (100 = 100% disease control, 0 = no disease control)” value in the experiment with Phytophthora infestans [4] (setting [6]) is recorded as 99%.
`Cc1ccc(C)c(CC(=O)N2CCN(c3nc(C(=O)N(C)[C@H](C)c4ccccc4)co3)CC2)c1` [compound 50]: the “Test B disease rating (100 = 100% disease control, 0 = no disease control)” value with Plasmopara viticola (setting [5]) is on record as 55%. Moreover, in experiment [1] (setting [6]), the “Test E disease rating (100 = 100% disease control, 0 = no disease control)” value is reported as 0%. In addition, in the experiment with Phytophthora infestans [2] (setting [7]), the “Test D disease rating (100 = 100% disease control, 0 = no disease control)” value is recorded as 99%. Further, the “Test F disease rating (100 = 100% disease control, 0 = no disease control)” value in experiment [3] (setting [8]) was 100%. Further, the “Test C disease rating (100 = 100% disease control, 0 = no disease control)” value in the experiment on Phytophthora infestans [4] (setting [6]) is given as 100%.
In the case of `COc1ccc([C@@H](C)N(C)C(=O)c2csc(C3CCN(C(=O)Cc4cc(C)ccc4C)CC3)n2)cc1` [compound 59], in the experiment on Plasmopara viticola (setting [5]), the “Test B disease rating (100 = 100% disease control, 0 = no disease control)” value stood at 84%. In experiment [1] (setting [6]), the “Test E disease rating (100 = 100% disease control, 0 = no disease control)” value is 21%. Also, the “Test D disease rating (100 = 100% disease control, 0 = no disease control)” value with Phytophthora infestans [2] (setting [7]) came out at 63%. Further, the “Test F disease rating (100 = 100% disease control, 0 = no disease control)” value in experiment [3] (setting [8]) was determined as 93%. Moreover, the “Test C disease rating (100 = 100% disease control, 0 = no disease control)” value in the experiment on Phytophthora infestans [4] (setting [6]) came to 98%.
In the case of `COc1ccc([C@@H](C)NC(=O)c2csc(C3CCN(C(=O)Cc4cccc(Br)c4)CC3)n2)cc1` [compound 279], in the experiment with Plasmopara viticola (setting [9]), the “Test B disease rating (100 = 100% disease control, 0 = no disease control)” value was found to be 0. The “Test E disease rating (100 = 100% disease control, 0 = no disease control)” value in experiment [1] (setting [10]) is 0. The “Test D disease rating (100 = 100% disease control, 0 = no disease control)” value with Phytophthora infestans [2] (setting [11]) came out at 0. Moreover, in experiment [3] (setting [12]), the “Test F disease rating (100 = 100% disease control, 0 = no disease control)” value came to 0. In addition, in the experiment on Phytophthora infestans [4] (setting [13]), the “Test C disease rating (100 = 100% disease control, 0 = no disease control)” value came to 0.
With `CC(c1ccccn1)N(C)C(=O)c1csc(C2CCN(C(=O)Cc3cccc(C(F)(F)F)c3)CC2)n1` (stereo not shown) [compound 75], in the experiment with Plasmopara viticola (setting [5]), the “Test B disease rating (100 = 100% disease control, 0 = no disease control)” value came to 16%. Moreover, the “Test E disease rating (100 = 100% disease control, 0 = no disease control)” value in experiment [1] (setting [6]) is reported as 0%. Moreover, the “Test D disease rating (100 = 100% disease control, 0 = no disease control)” value with Phytophthora infestans [2] (setting [7]) is 72%. Moreover, the “Test F disease rating (100 = 100% disease control, 0 = no disease control)” value in experiment [3] (setting [8]) is given as 0%. In addition, in the experiment with Phytophthora infestans [4] (setting [6]), the “Test C disease rating (100 = 100% disease control, 0 = no disease control)” value came to 100%.
Take `CCc1cccc(CC(=O)N2CCC(c3nc(C(=O)N(C)[C@H](C)c4ccccc4)cs3)CC2)c1` [compound 119]: the “Test B disease rating (100 = 100% disease control, 0 = no disease control)” value with Plasmopara viticola (setting [5]) is listed as 95%. The “Test E disease rating (100 = 100% disease control, 0 = no disease control)” value in experiment [1] (setting [6]) is given as 89%. Besides, in the experiment on Phytophthora infestans [2] (setting [7]), the “Test D disease rating (100 = 100% disease control, 0 = no disease control)” value came out at 33%. In addition, the “Test F disease rating (100 = 100% disease control, 0 = no disease control)” value in experiment [3] (setting [8]) stood at 100%. The “Test C disease rating (100 = 100% disease control, 0 = no disease control)” value with Phytophthora infestans [4] (setting [6]) is recorded as 99%.
With `C[C@H](c1ccccc1)N(C)C(=O)c1coc(C2CCN(C(=O)Nc3cccc(C(F)(F)F)c3)CC2)n1` [compound 158], the “Test B disease rating (100 = 100% disease control, 0 = no disease control)” value in the experiment on Plasmopara viticola (setting [5]) is given as 9%. In addition, the “Test E disease rating (100 = 100% disease control, 0 = no disease control)” value in experiment [1] (setting [6]) is listed as 0%. In addition, in the experiment on Phytophthora infestans [2] (setting [7]), the “Test D disease rating (100 = 100% disease control, 0 = no disease control)” value is 0%. For the same compound, the “Test F disease rating (100 = 100% disease control, 0 = no disease control)” value in experiment [3] (setting [8]) turned out to be 90%. Moreover, the “Test C disease rating (100 = 100% disease control, 0 = no disease control)” value in the experiment with Phytophthora infestans [4] (setting [6]) stood at 95%.
With `C[C@@H](NC(=O)c1csc(C2CCN(C(=O)Cc3cccc(Br)c3)CC2)n1)c1ccccc1C(F)(F)F` [compound 275], in the experiment with Plasmopara viticola (setting [9]), the “Test B disease rating (100 = 100% disease control, 0 = no disease control)” value was determined as 30. Besides, the “Test E disease rating (100 = 100% disease control, 0 = no disease control)” value in experiment [1] (setting [10]) came out at 0. The “Test D disease rating (100 = 100% disease control, 0 = no disease control)” value with Phytophthora infestans [2] (setting [11]) is recorded as 0. The “Test F disease rating (100 = 100% disease control, 0 = no disease control)” value in experiment [3] (setting [12]) is 0. Also, the “Test C disease rating (100 = 100% disease control, 0 = no disease control)” value with Phytophthora infestans [4] (setting [13]) was found to be 9.
